The text below walks through data of patent US8653263B2 (Janssen Pharmaceutica, priority 2009, dated 2014).

human orexin-2 receptor, sequence (O43614 whole entry): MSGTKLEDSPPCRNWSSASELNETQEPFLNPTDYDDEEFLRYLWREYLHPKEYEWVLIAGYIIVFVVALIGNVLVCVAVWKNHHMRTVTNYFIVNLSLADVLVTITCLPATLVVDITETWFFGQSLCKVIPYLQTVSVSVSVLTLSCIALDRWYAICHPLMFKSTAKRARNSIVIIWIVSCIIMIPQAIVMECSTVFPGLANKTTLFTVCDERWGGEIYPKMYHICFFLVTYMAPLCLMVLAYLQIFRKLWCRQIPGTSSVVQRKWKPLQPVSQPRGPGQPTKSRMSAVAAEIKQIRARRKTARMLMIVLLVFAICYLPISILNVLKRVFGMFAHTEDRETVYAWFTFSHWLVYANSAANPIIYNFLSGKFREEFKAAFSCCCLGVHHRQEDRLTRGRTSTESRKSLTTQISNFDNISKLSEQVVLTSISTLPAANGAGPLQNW

The test addresses human orexin-2 receptor (Homo sapiens (Human), UniProt O43614). Kind of test: Human orexin 2 receptor radioligand binding ([3H]-EMPA competition). Conditions: HEK293 cells stably expressing human orexin-2 receptor; [3H]-EMPA 5 nM final; apparent Ki=IC50/(1+C/Kd), Kd=2 nM; read-out: OR 2 Ki.
`Cc1cc(C)nc(N2CC3CN(C(=O)c4ccccc4-n4cccn4)CC3C2)n1` (centres unmarked) [Example 67, 2-(4,6-Dimethylpyrimidin-2-yl)-5-{[2-(1H-pyrazol-1-yl)phenyl]carbonyl}octahydro-pyrrolo[3,4-c]pyrrole]: the Ki was 0.119 µM.

`COc1cc(OC)nc(N2CC3CN(C(=O)c4c(F)cccc4-c4ncccn4)CC3C2)n1` (centres unmarked) [Example 68, 2-(4,6-Dimethoxypyrimidin-2-yl)-5-[(2-fluoro-6-pyrimidin-2-ylphenyl)carbonyl]octahydropyrrolo[3,4-c]pyrrole]: the Ki turned out to be 0.013 µM.

For `Cc1cc(C)nc(N2CC3CN(C(=O)c4ccccc4-c4ccccn4)CC3C2)n1` (centres unmarked) [Example 69, 2-(4,6-Dimethylpyrimidin-2-yl)-5-[(2-pyridin-2-ylphenyl)carbonyl]octahydro-pyrrolo[3,4-c]pyrrole], the Ki came out at 0.017 µM.

`COc1cc(OC)nc(N2CC3CN(C(=O)c4ccccc4-c4ccccn4)CC3C2)n1` (centres unmarked) [Example 70, 2-(4,6-Dimethoxypyrimidin-2-yl)-5-[(2-pyridin-2-ylphenyl)carbonyl]octahydro-pyrrolo[3,4-c]pyrrole]: the Ki came out at 0.052 µM.

On to `COc1cc(OC)nc(N2CC3CN(C(=O)c4cc(F)ccc4-c4ncccn4)CC3C2)n1` (centres unmarked) [Example 71, 2-(4,6-Dimethoxypyrimidin-2-yl)-5-[(5-fluoro-2-pyrimidin-2-ylphenyl)carbonyl]octahydropyrrolo[3,4-c]pyrrole], for which the Ki was found to be 1 µM.

With `COc1cc(OC)nc(N2CC3CN(C(=O)c4cc(F)ccc4-n4nccn4)CC3C2)n1` (centres unmarked) [Example 72, 2-(4,6-Dimethoxypyrimidin-2-yl)-5-{[5-fluoro-2-(2H-1,2,3-triazol-2-yl)phenyl]carbonyl}octahydropyrrolo[3,4-c]pyrrole], the Ki was 0.318 µM.

For the compound `Cc1cc(C)nc(N2CC3CN(C(=O)c4c(F)cccc4-c4ncccn4)CC3C2)n1` (centres unmarked) [Example 73, 2-(4,6-Dimethylpyrimidin-2-yl)-5-[(2-fluoro-6-pyrimidin-2-ylphenyl)carbonyl]octahydropyrrolo[3,4-c]pyrrole], the Ki was 0.007 µM.

For the compound `Cc1cc(C)nc(N2CC3CN(C(=O)c4cc(F)ccc4-c4ncccn4)CC3C2)n1` (centres unmarked) [Example 74, 2-(4,6-Dimethylpyrimidin-2-yl)-5-[(5-fluoro-2-pyrimidin-2-ylphenyl)carbonyl]octahydropyrrolo[3,4-c]pyrrole], the Ki worked out at 0.014 µM.

Regarding `CCc1ccccc1C(=O)N1CC2CN(c3nc(C)cc(C)n3)CC2C1` (centres unmarked) [Example 76, 2-(4,6-Dimethylpyrimidin-2-yl)-5-[(2-ethylphenyl)carbonyl]octahydropyrrolo[3,4-c]pyrrole], the Ki amounted to 0.237 µM.

For `CCOc1ccc2ccccc2c1C(=O)N1CC2CN(c3nc(C)cc(C)n3)CC2C1` (centres unmarked) [Example 77, 2-(4,6-Dimethylpyrimidin-2-yl)-5-[(2-ethoxynaphthalen-1-yl)carbonyl]octahydro-pyrrolo[3,4-c]pyrrole], the Ki stood at 0.025 µM.

`COc1cc(OC)nc(N2CC3CN(C(=O)c4ccccc4-n4cccn4)CC3C2)n1` (centres unmarked) [Example 78, 2-(4,6-Dimethoxypyrimidin-2-yl)-5-{[2-(1H-pyrazol-1-yl)phenyl]carbonyl}octahydro-pyrrolo[3,4-c]pyrrole]: the Ki is 0.55 µM.

As to `Cc1cc(C)nc(N2CC3CN(C(=O)c4ncoc4-c4ccccc4)CC3C2)n1` (centres unmarked) [Example 79, 2-(4,6-Dimethylpyrimidin-2-yl)-5-[(5-phenyl-1,3-oxazol-4-yl)carbonyl]octahydro-pyrrolo[3,4-c]pyrrole], the Ki turned out to be 0.48 µM.

Consider `Cc1cc(C)nc(N2CC3CN(C(=O)c4cnoc4-c4ccccc4)CC3C2)n1` (centres unmarked) [Example 80, 2-(4,6-Dimethylpyrimidin-2-yl)-5-[(5-phenylisoxazol-4-yl)carbonyl]octahydro-pyrrolo[3,4-c]pyrrole], for which the Ki came to 0.314 µM.

With `Cc1cc(N2CC3CN(C(=O)c4ccccc4-n4nccn4)CC3C2)nc(C(C)C)n1` (centres unmarked) [Example 81, [5-(2-Isopropyl-6-methyl-pyrimidin-4-yl)-hexahydro-pyrrolo[3,4-c]pyrrol-2-yl]-(2-[1,2,3]triazol-2-yl-phenyl)-methanone], the Ki was determined as 1.22 µM.
